Laboratory results taken from ChEMBL document CHEMBL1201862, “PubChem BioAssay data set” (2004).
Active and inactive are the calls of the source.

Assays:
[1] = target: SUMO E1/E2 (Homo sapiens, UniProt P63279+Q9UBE0+Q9UBT2); assay: SAR analysis of SUMOylation using HTRF in an in-Vitro dose response assay. [Related pubchem assays (depositor defined):AID2006, AID2011, AID2018, AID2069, AID2658]; type: functional
[2] = cells; type: functional
[3] = target: T1, Replicative DNA helicase DnaB (Mycobacterium tuberculosis, UniProt P9WMR3); assay: DnaB intein splicing inhibitors, dose response, biochemical, cell-free fluorescence (AID 449749); type: functional
T1 sequence (P9WMR3 whole entry): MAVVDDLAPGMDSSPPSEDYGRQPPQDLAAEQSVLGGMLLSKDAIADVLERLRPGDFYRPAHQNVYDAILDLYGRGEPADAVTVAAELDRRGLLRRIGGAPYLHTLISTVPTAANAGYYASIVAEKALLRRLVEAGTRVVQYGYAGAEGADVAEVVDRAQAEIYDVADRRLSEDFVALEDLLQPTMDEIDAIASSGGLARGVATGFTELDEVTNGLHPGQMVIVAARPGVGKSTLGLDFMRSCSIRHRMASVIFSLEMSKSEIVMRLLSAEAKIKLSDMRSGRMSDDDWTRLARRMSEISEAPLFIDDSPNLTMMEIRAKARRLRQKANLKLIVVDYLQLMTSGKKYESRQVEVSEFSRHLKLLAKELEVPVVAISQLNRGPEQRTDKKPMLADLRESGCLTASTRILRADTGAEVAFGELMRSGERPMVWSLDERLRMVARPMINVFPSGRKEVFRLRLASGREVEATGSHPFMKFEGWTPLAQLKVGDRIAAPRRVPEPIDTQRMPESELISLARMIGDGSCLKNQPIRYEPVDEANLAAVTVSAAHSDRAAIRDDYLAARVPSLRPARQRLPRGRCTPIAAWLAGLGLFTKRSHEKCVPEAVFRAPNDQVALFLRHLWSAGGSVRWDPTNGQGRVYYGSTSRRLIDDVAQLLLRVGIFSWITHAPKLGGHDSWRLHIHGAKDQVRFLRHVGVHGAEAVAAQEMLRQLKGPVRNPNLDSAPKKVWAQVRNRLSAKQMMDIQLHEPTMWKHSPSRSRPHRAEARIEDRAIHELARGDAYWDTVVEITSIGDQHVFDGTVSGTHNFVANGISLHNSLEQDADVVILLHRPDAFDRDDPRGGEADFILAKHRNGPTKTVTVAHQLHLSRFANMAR

[4] = target: T2, Protein RecA (Mycobacterium tuberculosis, UniProt P9WHJ3); assay: Fluorescence Cell-Free Homogeneous Dose Retest to Identify Inhibitors of RecA-Intein Splicing Activity. [Related pubchem assays (depositor defined):AID2097, AID2223, AID489010, AID492950]; type: functional
T2 sequence (P9WHJ3 whole entry): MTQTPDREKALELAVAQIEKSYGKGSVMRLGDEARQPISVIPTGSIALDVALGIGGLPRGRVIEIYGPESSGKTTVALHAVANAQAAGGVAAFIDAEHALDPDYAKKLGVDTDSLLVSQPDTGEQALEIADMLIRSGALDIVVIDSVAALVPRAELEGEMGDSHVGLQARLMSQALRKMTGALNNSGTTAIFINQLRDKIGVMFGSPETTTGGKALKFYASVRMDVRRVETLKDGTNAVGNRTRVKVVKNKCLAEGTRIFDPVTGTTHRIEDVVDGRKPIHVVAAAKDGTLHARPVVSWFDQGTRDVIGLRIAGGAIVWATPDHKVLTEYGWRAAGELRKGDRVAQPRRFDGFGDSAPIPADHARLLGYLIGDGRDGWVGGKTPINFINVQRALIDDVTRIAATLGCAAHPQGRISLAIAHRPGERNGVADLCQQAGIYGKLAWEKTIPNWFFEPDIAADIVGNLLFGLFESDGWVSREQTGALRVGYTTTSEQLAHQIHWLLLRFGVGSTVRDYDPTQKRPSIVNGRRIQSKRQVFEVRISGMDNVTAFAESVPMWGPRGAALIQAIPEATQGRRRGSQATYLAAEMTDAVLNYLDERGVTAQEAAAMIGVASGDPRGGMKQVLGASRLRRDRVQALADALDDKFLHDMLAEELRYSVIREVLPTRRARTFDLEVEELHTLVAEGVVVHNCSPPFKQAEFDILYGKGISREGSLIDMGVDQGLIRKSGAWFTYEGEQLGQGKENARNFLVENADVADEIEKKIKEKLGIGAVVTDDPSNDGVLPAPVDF

[5] = target: Genome polyprotein (dengue virus type 2, UniProt P29990); assay: flavivirus cap methylation enzyme inhibition – biochemical, confirmation dose response, primary screen (AID 588689); type: functional
[6] = target: T3, Sentrin-specific protease 8 (Homo sapiens, UniProt Q96LD8); type: functional
T3 sequence (Q96LD8 whole entry): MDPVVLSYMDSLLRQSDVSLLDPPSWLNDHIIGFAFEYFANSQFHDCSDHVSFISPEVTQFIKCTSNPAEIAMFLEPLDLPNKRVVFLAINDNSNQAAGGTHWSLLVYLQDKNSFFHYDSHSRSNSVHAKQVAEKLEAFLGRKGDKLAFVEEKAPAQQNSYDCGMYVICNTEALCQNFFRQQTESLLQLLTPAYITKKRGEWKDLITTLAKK

[7] = target: T3, Sentrin-specific protease 8; type: functional; remark: listed apart in the source
[8] = target: Cytochrome P450 3A4 (Homo sapiens, UniProt P08684);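 note: CYP3A4 tested as one member of a cytochrome P450 panel screen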
[9] = system: HEK293; assay: cells; type: functional, cell-based; settings: Homo sapiens
[10] = target: T4, Nuclear receptor subfamily 0 group B member 1 (Homo sapiens, UniProt P51843); assay: Luminescence-based cell-based high throughput dose response assay for inhibitors of the orphan nuclear receptor subfamily 0, group B, member 1 (DAX1; NR0B1). [Related pubchem assays (depositor defined):AID504766, AID504790]; type: functional
T4 sequence (P51843 whole entry): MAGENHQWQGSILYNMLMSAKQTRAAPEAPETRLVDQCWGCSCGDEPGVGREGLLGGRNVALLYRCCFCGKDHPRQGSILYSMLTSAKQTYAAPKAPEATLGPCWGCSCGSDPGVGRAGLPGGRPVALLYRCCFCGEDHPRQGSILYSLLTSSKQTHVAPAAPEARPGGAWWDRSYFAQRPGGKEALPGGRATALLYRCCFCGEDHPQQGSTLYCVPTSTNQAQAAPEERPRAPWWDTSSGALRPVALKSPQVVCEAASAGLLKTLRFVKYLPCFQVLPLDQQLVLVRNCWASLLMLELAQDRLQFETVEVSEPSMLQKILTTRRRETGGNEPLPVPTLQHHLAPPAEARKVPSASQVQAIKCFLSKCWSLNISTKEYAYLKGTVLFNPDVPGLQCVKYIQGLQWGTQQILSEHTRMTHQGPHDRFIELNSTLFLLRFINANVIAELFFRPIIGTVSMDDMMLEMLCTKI

[11] = luciferase reporter signal suppression in cells – H4 neuroglioma cells, luminescence, dose response (AID 1990); type: functional, cell-based
[12] = target: T5, RNA-binding protein pos-1 (Caenorhabditis elegans, UniProt G5EF15); assay: disruptors of C. elegans POS-1 RNA interaction – biochemical, fluorescence polarization, dose response (AID 1964);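 note: purified POS-1 fused to maltose binding protein made in E. coli; potency of compounds blocking POS-1 binding to fluorescent RNA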
T5 sequence (G5EF15 whole entry): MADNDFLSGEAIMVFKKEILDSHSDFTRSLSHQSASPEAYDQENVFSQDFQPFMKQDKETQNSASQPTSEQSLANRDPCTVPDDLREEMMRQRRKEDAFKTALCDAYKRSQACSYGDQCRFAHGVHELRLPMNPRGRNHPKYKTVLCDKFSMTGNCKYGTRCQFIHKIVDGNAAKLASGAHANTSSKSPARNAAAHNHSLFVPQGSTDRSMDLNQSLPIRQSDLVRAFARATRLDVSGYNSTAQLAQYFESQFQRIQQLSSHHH

[13] = Luminescence Cell-Based Dose Response HTS to Identify Inhibitors of 5'UTR Stem-Loop Driven Prion Protein mRNA Translation in H4 Neuroglioblastoma Cells. [Related pubchem assays: 1827 (Project Summary), 1813 (Primary HTS)]; type: functional
[14] = target: T6, Zinc finger protein mex-5 (Caenorhabditis elegans, UniProt Q9XUB2); assay: potency of MEX-5 RNA-binding blockers – biochemical, C. elegans, fluorescence polarization, dose response (AID 1960)
T6 sequence (Q9XUB2 whole entry): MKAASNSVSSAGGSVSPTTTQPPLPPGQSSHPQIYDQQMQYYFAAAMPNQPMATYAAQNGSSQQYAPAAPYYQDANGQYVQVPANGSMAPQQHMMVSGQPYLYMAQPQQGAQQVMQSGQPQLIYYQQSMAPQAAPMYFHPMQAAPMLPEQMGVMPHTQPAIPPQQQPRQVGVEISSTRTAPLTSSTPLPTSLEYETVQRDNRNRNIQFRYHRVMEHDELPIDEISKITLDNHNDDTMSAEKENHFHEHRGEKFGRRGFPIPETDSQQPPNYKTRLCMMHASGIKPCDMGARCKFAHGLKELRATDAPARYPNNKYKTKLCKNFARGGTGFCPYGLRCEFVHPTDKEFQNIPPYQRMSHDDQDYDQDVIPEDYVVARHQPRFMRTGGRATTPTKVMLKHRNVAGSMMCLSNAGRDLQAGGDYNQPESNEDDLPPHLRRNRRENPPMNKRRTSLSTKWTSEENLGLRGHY

[15] = alpha-synuclein stem-loop luciferase translation blockers – H4 neuroglioma cells, luminescence, confirmation (AID 1988); type: functional, cell-based
[16] = target: T7, Endoribonuclease toxin MazF (Escherichia coli K-12, UniProt P0AE70); assay: activation of MazEF endoribonuclease cleavage – biochemical, fluorescence, single-stranded RNA substrate, uHTS hits, dose response (AID 588481); type: functional
T7 sequence (P0AE70 whole entry): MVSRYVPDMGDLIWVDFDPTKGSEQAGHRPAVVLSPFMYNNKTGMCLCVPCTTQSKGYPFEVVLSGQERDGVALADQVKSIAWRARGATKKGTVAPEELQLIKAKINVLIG

[17] = target: T7, Endoribonuclease toxin MazF; assay: substrate-only fluorescence increase artefacts – biochemical, single-stranded RNase substrate, counter-screen for MazEF activator project, dose response (AID 588502); type: functional
[18] = target: Dual specificity tyrosine-phosphorylation-regulated kinase 1A (Rattus norvegicus, UniProt Q63470); type: biochemical, Homo sapiens
[19] = target: Cytochrome P450 2C19 (Homo sapiens, UniProt P33261); assay: Cytochrome panel assay with activity outcomes. Panel member name: p450-cyp2c19 Compounds with AC50 equal or less than 10 uM are considered active; type: functional; settings: read-out: AC50
[20] = target: T8, Cytochrome P450 2C9 (Homo sapiens, UniProt P11712)
[21] = system: Streptococcus sp. 'group A'; assay: Streptococcus pyogenes SK(-)GAS viability under kanamycin – luminescence, BacTiterGlo, confirmation, counter-screen for streptokinase expression inhibitor project, dose response (AID 1900); type: functional, organism-based
[22] = system: Streptococcus; assay: GAS UMAA2166 growth inhibition – luminescence, BacTiterGlo, counter-screen for streptokinase expression inhibitor project, dose response (AID 1915); type: functional, organism-based;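 note: potency for reduction of bacterial viability or growth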
[23] = target: FAD-linked sulfhydryl oxidase ALR (Homo sapiens, UniProt P55789); assay: ALR-catalysed DTT oxidation blockers – biochemical, H2O2 detection, luminescence, cherry-pick, dose response (AID 493248)
[24] = target: Dual specificity protein kinase CLK1 (Homo sapiens, UniProt P49759); assay: inhibition of human CLK1 activity – biochemical, cherry-picked samples, selectivity assay for Dyrk1A inhibitor project, dose response (AID 588811)
[25] = target: T8, Cytochrome P450 2C9; remark: listed apart in the source

Chain of Cytochrome P450 3A4 (P08684 whole entry): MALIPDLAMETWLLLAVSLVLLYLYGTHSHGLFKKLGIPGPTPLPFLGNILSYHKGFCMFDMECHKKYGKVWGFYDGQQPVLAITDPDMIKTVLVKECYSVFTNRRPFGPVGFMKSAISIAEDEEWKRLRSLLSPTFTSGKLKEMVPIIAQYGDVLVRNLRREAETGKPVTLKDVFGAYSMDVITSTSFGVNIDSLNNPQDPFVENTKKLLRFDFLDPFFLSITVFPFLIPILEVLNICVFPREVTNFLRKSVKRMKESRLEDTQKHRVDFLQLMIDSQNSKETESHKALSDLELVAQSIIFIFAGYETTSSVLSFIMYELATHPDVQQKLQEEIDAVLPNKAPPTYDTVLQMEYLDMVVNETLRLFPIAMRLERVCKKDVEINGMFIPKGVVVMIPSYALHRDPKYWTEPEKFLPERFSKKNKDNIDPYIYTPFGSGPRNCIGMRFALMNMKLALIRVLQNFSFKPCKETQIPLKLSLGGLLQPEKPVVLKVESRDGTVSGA
T8 sequence (P11712 whole entry): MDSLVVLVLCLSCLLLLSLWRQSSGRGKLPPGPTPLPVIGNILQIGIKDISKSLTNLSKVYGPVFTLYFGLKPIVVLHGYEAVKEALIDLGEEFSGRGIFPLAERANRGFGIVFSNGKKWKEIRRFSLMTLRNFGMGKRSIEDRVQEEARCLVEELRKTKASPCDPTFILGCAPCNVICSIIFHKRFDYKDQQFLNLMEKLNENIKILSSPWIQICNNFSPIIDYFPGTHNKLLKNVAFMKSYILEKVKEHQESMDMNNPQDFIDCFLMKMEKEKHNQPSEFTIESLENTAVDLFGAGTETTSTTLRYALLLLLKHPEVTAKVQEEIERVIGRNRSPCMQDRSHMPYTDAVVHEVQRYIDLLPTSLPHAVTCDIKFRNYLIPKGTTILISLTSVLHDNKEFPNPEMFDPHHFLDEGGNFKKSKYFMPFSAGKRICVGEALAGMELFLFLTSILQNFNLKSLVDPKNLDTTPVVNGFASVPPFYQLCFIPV
Chain of Dual specificity protein kinase CLK1 (P49759 whole entry): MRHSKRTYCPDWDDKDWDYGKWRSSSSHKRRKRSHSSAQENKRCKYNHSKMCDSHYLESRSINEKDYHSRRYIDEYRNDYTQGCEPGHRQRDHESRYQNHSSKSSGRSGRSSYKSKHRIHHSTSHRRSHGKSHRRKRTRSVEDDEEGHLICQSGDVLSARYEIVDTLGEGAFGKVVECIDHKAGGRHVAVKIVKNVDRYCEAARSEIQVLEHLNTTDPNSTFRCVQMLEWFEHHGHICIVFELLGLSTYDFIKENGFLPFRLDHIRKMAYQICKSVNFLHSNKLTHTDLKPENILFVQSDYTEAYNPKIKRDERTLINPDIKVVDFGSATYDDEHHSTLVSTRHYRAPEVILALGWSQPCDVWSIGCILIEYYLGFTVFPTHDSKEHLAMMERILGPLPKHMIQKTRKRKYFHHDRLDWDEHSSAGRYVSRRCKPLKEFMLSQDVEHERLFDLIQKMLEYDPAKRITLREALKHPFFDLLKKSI
Chain of FAD-linked sulfhydryl oxidase ALR (P55789 whole entry): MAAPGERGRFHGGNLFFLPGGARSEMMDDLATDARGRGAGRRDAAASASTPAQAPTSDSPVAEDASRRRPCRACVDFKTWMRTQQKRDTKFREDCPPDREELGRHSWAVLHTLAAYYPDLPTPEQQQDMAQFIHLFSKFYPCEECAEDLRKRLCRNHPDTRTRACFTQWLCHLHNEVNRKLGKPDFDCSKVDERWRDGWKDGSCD
Chain of Genome polyprotein (P29990 2492-3391 limits assumed): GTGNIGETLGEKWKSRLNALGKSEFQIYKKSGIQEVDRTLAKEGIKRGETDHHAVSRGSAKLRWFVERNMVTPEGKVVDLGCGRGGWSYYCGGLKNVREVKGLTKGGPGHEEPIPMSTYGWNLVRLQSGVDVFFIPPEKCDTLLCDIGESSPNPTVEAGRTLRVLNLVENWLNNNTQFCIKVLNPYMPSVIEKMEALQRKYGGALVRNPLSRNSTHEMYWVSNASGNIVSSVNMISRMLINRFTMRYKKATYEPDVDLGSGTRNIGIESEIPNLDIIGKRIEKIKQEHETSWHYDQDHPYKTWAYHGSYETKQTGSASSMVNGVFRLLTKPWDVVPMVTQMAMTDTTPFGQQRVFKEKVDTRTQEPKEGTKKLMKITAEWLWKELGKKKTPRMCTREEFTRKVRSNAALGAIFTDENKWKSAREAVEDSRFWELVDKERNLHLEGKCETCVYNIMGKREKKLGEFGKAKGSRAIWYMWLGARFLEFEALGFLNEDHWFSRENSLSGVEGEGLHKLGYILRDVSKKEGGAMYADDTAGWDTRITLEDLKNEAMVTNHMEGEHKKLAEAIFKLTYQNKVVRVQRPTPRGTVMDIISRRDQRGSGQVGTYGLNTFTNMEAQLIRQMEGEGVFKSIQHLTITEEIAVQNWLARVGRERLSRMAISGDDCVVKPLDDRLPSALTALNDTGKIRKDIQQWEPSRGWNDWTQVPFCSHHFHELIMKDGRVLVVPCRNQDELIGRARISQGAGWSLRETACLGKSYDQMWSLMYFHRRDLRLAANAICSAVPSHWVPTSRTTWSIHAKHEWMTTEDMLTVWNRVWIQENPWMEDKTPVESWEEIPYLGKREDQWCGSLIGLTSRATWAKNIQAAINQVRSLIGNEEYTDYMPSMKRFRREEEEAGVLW
Chain of SUMO E1/E2 (Q9UBE0 whole entry): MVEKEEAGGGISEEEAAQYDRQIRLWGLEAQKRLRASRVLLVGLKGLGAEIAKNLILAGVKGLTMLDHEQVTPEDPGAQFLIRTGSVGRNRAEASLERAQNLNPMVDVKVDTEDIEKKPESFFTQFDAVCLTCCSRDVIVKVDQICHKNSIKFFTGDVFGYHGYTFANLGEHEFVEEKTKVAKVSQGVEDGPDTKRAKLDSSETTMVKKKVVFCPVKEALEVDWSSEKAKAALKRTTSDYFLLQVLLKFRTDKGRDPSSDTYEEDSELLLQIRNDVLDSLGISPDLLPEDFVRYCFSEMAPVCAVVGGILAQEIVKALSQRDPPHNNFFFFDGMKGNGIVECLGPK
Chain of SUMO E1/E2 (Q9UBT2 whole entry): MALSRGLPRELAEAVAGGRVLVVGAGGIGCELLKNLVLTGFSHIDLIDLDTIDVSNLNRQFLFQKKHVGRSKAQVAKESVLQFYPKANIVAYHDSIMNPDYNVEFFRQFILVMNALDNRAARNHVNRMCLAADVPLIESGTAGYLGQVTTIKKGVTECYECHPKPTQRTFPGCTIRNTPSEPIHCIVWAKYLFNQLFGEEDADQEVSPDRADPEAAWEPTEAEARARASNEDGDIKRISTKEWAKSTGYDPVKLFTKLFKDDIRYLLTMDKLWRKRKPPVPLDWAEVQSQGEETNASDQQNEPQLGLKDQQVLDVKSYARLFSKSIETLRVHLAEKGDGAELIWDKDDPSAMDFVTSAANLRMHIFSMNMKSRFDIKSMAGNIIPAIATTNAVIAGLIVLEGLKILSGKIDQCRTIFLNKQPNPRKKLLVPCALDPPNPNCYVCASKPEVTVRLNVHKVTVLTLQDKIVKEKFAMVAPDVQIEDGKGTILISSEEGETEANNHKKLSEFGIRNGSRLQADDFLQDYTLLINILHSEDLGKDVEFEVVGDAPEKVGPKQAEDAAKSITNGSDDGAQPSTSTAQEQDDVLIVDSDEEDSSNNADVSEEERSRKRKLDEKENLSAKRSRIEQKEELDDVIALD
Chain of SUMO E1/E2 (P63279 whole entry): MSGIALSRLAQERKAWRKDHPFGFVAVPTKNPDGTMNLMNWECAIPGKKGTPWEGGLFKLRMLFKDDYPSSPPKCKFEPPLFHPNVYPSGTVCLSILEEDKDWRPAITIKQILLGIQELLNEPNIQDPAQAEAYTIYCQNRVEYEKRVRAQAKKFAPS
Chain of Cytochrome P450 2C19 (P33261 whole entry): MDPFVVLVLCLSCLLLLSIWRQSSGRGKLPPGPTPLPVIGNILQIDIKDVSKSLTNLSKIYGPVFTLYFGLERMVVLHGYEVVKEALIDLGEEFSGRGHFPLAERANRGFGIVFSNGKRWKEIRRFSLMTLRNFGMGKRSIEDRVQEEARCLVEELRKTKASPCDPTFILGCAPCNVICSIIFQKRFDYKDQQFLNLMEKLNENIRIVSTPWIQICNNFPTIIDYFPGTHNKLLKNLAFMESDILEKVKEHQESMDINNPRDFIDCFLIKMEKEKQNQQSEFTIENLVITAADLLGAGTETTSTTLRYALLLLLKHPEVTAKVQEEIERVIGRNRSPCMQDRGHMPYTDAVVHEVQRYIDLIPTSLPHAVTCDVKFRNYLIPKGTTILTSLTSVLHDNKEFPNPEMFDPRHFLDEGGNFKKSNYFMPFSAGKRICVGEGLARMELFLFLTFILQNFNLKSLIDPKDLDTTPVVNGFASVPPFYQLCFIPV

Cc1n[nH]c(O)c1C(c1ccc(-c2ccc(F)cc2)o1)c1c(C)n[nH]c1O
IC50 [1]: > 100 µM (inactive)
IC50 [2]: 41.6 µM (active)
AC50 [3]: 0.321 µM (active)
EC50 [4]: 0.297 µM (active)
IC50 [5]: 58.1 µM (active)
IC50 [6]: 14 µM (active)
IC50 [7]: 12.3 µM (active)

CCOC(=O)CN1C(=O)Nc2ccc(Br)cc2C1c1ccccc1 (centres undefined)
AC50 [8]: inconclusive

CCn1c(=O)c(C(=O)NNS(=O)(=O)c2ccc(Br)cc2)c(O)c2ccccc21
IC50 [9]: > 67.6 µM (inactive)
IC50 [10]: > 67.6 µM (inactive)

Cc1c(N/C=C2/C(=O)N(C)C(=O)c3ccccc32)c(=O)n(-c2ccccc2)n1C
EC50 [11]: > 120 µM (not active)
EC50 [12]: > 300 µM (not active)
EC50 [13]: > 120 µM (not active)
EC50 [14]: > 300 µM (inconclusive)
EC50 [15]: > 120 µM (not active)
EC50 [16]: > 99 µM (inactive)
EC50 [17]: 56.4 µM (inactive)

Cc1cccc(-c2nc(Nc3ccc(O)cc3)c3ccccc3n2)c1
AC50 [18]: 1.1 µM (active)

CC(=O)OCc1nc2ccccc2s1
AC50 [19]: 25.1 µM (inconclusive)
AC50 [8]: inconclusive
AC50 [20]: inconclusive

Cn1cccc1/C=C1\SC(=O)N(c2ccc(O)cc2)C1=O
EC50 [16]: > 99 µM (inactive)
EC50 [17]: 29.2 µM (inactive)

Cc1noc(NS(=O)(=O)c2ccc(NC(=O)c3oc4ccc(Cl)cc4c3C)cc2)c1C
EC50 [21]: 8.14 µM (active)
EC50 [22]: 36.9 µM (active)
AC50 [23]: 0.626 µM (active)
AC50 [24]: 10 µM (active)
AC50 [18]: 6.88 µM (active)

COc1ccc(-c2noc(-c3ccoc3C)n2)cc1
IC50 [9]: > 67.6 µM (inactive)
IC50 [10]: > 67.6 µM (inactive)

O=C(c1ccco1)N1CCC2(CC1)CCN(C(c1ccccc1)c1ccccc1)CC2
AC50 [25]: 39.8 µM (inconclusive)
AC50 [8]: inconclusive

COc1ccc(C(=O)Nc2nc(C)c(C(C)=O)s2)cc1S(=O)(=O)N1CCOCC1
EC50 [16]: > 99 µM (inactive)
EC50 [17]: > 99 µM (inactive)
